# Values quoted from earlier work in patent US20080317886A1, “Compositions for Preventing and Reducing Delayed Onset Muscle Soreness” (priority 2005, published 2008).
# Tests used:
# muscle damage (CPK, LDH) = details: 3 g HMB per day, six weeks of training, 20 km run; compared to placebo
# [1] = tested on: perceived muscle soreness; details: downhill running protocol
# [2] = tested on: muscle damage (blood CPK); details: men and women, 4-week weight training program
# [3] = tested on: muscle catabolism (3-methylhistidine); details: intense resistance-weight training
# [4] = HMB with 75 g glucose in water compared with HMB with water
# [5] = tested on: delayed onset muscle soreness; details: six days supplementation with 40 mg/kg HMB, single bout of exercise
# [6] = "in as little as"
substance,measurement,setting,value
beta-hydroxy-beta-methylbutyrate [HMB],blood levels of CPK after the run,"muscle damage (CPK, LDH)",reduced levels
same,blood levels of LDH after the run,"muscle damage (CPK, LDH)",reduced levels
same,perceived muscle soreness,[1],reduced
same,strength loss,[1],less strength loss
same,decrease in blood CPK levels,[2],2%
same,plasma 3-MH,[3],significant decrease
same,HMB excreted in the urine,[4],less
same,plasma HMB levels,[4],lower
same,DOMS,[5],did not reduce
same,time to increase of plasma levels,[6],30 min
